In EP4306512A1, “QUINOLYLNITRONES WITH IMPROVED POTENCY” (Fundación para la Investigación Biomédica del Hospital …, priority 2022, dated 2024):

System: Primary neuronal cultures
Assay: Neuroprotection after oxygen-glucose deprivation (OGD 4 h, 24 h recovery) in primary neuronal cultures, cell viability by MTT assay
Format: cell-based, rat
Details: for neuroprotection effect / potency compared with references, in words: 1 µM for the compounds of the invention vs 10 µM for QN23 and 100 µM NXY-059; for cell viability: MTT absorbance after OGD 4 h and 24 h recovery, R24h vehicle 1.480 ± 0.02 AU, control 1.916 ± 0.07 AU; for Neuroprotection at 1 µM / Neuroprotection at 10 µM / Neuroprotection at 100 µM: Rattus norvegicus; for Neuroprotection at 1 µM: Conc 1 µM; for toxicity / safety, in words: all tested doses; for Neuroprotection at 10 µM: Conc 10 µM; for protective effect (cell viability compared with vehicle-treated group R24h), in words: concentration range tested, from 0.1 to 250 µM
Procedure: Primary Neuronal Cultures. Primary neuronal cultures were prepared from rat embryos cerebral cortex following a procedure previously described by our group. Briefly, cell suspensions were prepared from cerebral cortices from E16 Sprague Dawley rat embryos and seeded on plastic multidishes precoated with 0.05 mg/mL poly-D-lysine at a density of 2.5 × 10^5 cells/cm^2. Cells were kept at 37 °C in a 6.5% CO2 atmosphere in high glucose DMEM medium supplemented with 15% heat-inactivated (56 °C, 30 min) fetal calf serum. After 24 h, culture medium was replaced by serum-free medium (DMEM/Ham's F12, 1:1 vol/vol, 5 mg/mL glucose, 2 mM L-glutamine, and 1 mM sodium pyruvate, supplemented with 100 µg/mL transferrin, 100 µM putrescine, 30 nM sodium selenite, 20 nM progesterone, and 5 µg/mL insulin). In these experiments, 6- to 7-days in vitro (DIV) neuronal cultures were used, containing 90% β-tubulin isotype III-positive mature neurons, as described previously.^23 All procedures associated with animal experiments were authorized by the Animal Experimentation Ethics Committee of the Hospital Universitario Ramón y Cajal (Madrid, Spain).
Experimental Ischemia in Neuronal Cultures and Treatments. Primary neuronal cultures were subjected to oxygen-glucose deprivation (OGD) to induce experimental ischemia. Cells cultured for 6- to 7- DIV were washed and placed in glucose-free DMEM medium (previously bubbled with 95% N2/5% CO2 for 30 min) and kept in a humidified anaerobic chamber containing a gas mixture of 95% N2/5% CO2 at 37 °C for 4 h (OGD 4h). Control group was placed in glucose-supplemented DMEM medium and kept in the normoxic incubator for 4h. After 4h of incubation under anoxic (OGD 4h) or normoxic (control) conditions, culture cells were quickly placed in serum-free normo-glycemic culture medium and let to reoxygenate, compounds or vehicle were added and cells were maintained in normoxic and normoglycemic conditions to recover for 24 h. Vehicle experimental group (R24h) included the same amount of vehicle solution than the groups tested with compounds (final concentration < 0.5% ethanol). The experimental procedure was blindly performed, assigning a random order to each group assayed. Compound assays were performed independently from four to eight times with different batches of cultures, and each experiment was run in quadruplicate.
Cell viability assays. To assess the potential neuroprotective effect of the compounds against OGD, cell viability was evaluated by quantification of living, metabolically active cells, as determined by the colorimetric assay using the photometric reduction of 3-(4,5-dimethylthiazol-2-yl)-2,5-diphenyl tetrazolium bromide (MTT) (Roche) to a blue formazan product. MTT assay was performed after the 24-hour-long recovery period -except for the OGD 4h group, for which MTT was added right after the end of the OGD period, with no recovery- by treating cells with 0.2 mg/mL MTT in the culture medium for 1.5 h at 37 °C in a 6.5% CO2 atmosphere. After incubation, cells were lysed with an equal volume of lysis solution (10 mM HCl, 10% SDS) overnight. Values were quantified by absorbance at 595 nm (reference 690 nm) and expressed in Absorbance Units (AU). Decreased MTT activity denotes impairment of mitochondrial function and is indicative of cell damage.
Statistical Analysis. Data from each treatment were independently analyzed and their averaged values were used for statistical analysis. The treatment information was kept concealed throughout the study. Data were represented as mean ± SE. Analysis of variance (ANOVA) was performed to compare the data between multiple concentrations, following post hoc test when analysis of variance was significant. Statistical significance level was set at α = 0.05 using Prism statistical software (GraphPad Software).
Cell viability observed in the control group was set as 100% of neuroprotection. […]

[1] = added at onset of 24 h recovery after OGD 4 h, R24h vehicle = 0%, control = 100%, mean ± SE
[2] = Conc 100 µM, added at onset of 24 h recovery after OGD 4 h, R24h vehicle = 0%, control = 100%, mean ± SE

COc1ccc2nc(-c3ccc([N+](=O)[O-])cc3)c(/C=[N+](\[O-])Cc3ccccc3)cc2c1 [QN14, (Z)-N-Benzyl-1-(6-methoxy-2-(4-nitrophenyl)quinolin-3-yl)methanimine oxide]
neuroprotection effect / potency compared with references, in words: highest neuroprotection effect | cell viability (1 µM): 1.742 ± 0.04 AU | Neuroprotection at 1 µM [1]: 60.1 ± 1.24% | toxicity / safety, in words: safe

COc1ccc2nc(S(=O)(=O)c3ccc([N+](=O)[O-])cc3)c(/C=[N+](\[O-])C(C)(C)C)cc2c1 [QN11, (Z)-N-tert-Butyl-1-(2-((4-nitrophenyl)sulfonyl)-6-methoxyquinolin-3-yl)methanimine oxide]
Neuroprotection at 1 µM [1]: 46.5 ± 1.94%

COc1ccc2nc(S(=O)(=O)c3ccccc3)c(/C=[N+](\[O-])Cc3ccccc3)cc2c1 [QN8, (Z)-N-Benzyl-1-(6-methoxy-2-(phenylsulfonyl)quinolin-3-yl)methanimine oxide]
neuroprotection effect / potency compared with references, in words: highest neuroprotection effect | Neuroprotection at 1 µM [1]: 54.1 ± 2.27%

C#CCOc1ccc2nc(Cl)c(/C=[N+](\[O-])Cc3ccccc3)cc2c1 [QN1, (Z)-N-Benzyl-1-(2-chloro-6-(prop-2-yn-1-yloxy)quinolin-3-yl)methanimine oxide]
Neuroprotection at 1 µM [1]: 26.9 ± 0.88% | Neuroprotection at 10 µM [1]: 34.8 ± 0.78% | Neuroprotection at 100 µM [2]: 41.3 ± 1.91% | protective effect (cell viability compared with vehicle-treated group R24h), in words: no remarkable overall protective effect

COc1ccc2nc(F)c(/C=[N+](\[O-])Cc3ccccc3)cc2c1 [QN6, (Z)-N-Benzyl-1-(6-(methoxy)-2-fluoroquinolin-3-yl)methanimine oxide]
Neuroprotection at 1 µM [1]: 26.3 ± 0.89% | Neuroprotection at 10 µM [1]: 25.1 ± 1.03% | protective effect (cell viability compared with vehicle-treated group R24h), in words: did not show significant differences to the value obtained for the vehicle-treated group

[O-]/[N+](=C\c1cc2cc(OCc3ccccc3)ccc2nc1Cl)Cc1ccccc1 [QN3, (Z)-N-Benzyl-1-(6-(benzyloxy)-2-chloroquinolin-3-yl)methanimine oxide]
Neuroprotection at 1 µM [1]: 45.2 ± 1%

COc1ccc2nc(F)c(/C=[N+](\[O-])C(C)(C)C)cc2c1 [QN7, (Z)-N-tert-Butyl-1-(6-(methoxy)-2-fluoroquinolin-3-yl)methanimine oxide]
Neuroprotection at 1 µM [1]: 38.5 ± 0.62% | protective effect (cell viability compared with vehicle-treated group R24h), in words: did not show significant differences to the value obtained for the vehicle-treated group

C[N+](C)(C)CCOP(=O)(O)OP(=O)([O-])OC[C@H]1O[C@@H](n2ccc(N)nc2=O)[C@H](O)[C@@H]1O [citicoline, reference compound]
cell viability (100 µM): 1.588 ± 0.02 AU

COc1ccc2nc(S(=O)(=O)c3ccc([N+](=O)[O-])cc3)c(/C=[N+](\[O-])Cc3ccccc3)cc2c1 [QN10, (Z)-N-Benzyl-1-(2-((4-nitrophenyl)sulfonyl)-6-methoxyquinolin-3-yl)methanimine oxide]
Neuroprotection at 1 µM [1]: 47.2 ± 0.94%

CCOC(=O)/C=C/c1nc2ccc(OC)cc2cc1/C=[N+](\[O-])C(C)(C)C [QN16, (Z)-N-tert-Butyl-1-(2-((E)-3-ethoxy-3-oxoprop-1-en-1-yl)-6-methoxyquinolin-3-yl)methanimine oxide]
effect compared with vehicle R24h, in words (1 µM dose): higher effect than vehicle R24h

CC(C)(C)/[N+]([O-])=C/c1cc2cc(OCc3ccccc3)ccc2nc1Cl [QN4, (Z)-N-tert-Butyl-1-(6-(benzyloxy)-2-chloroquinolin-3-yl)methanimine oxide]
neuroprotection effect / potency compared with references, in words: highest neuroprotection effect | cell viability (1 µM): 1.777 ± 0.04 AU | Neuroprotection at 1 µM [1]: 67.9 ± 1.44%

CC(C)(C)[N+]([O-])=Cc1ccc(S(=O)(=O)[O-])cc1S(=O)(=O)[O-].[Na+].[Na+] [NXY-059, reference compound]
cell viability (100 µM): 1.664 ± 0.07 AU | Neuroprotection (%) [2]: 41.93 ± 2.26%

COc1ccc2nc(Cl)c(/C=[N+](\[O-])C(C)(C)C)cc2c1 [QN23, (Z)-N-tert-butyl-1-(2-chloro-6-methoxyquinolin-3-yl)methanimine oxide, reference compound]
cell viability (10 µM): 1.695 ± 0.03 AU | Neuroprotection at 10 µM [1]: 49 ± 0.89%

C#CCOc1ccc2nc(Cl)c(/C=[N+](\[O-])C(C)(C)C)cc2c1 [QN2, (Z)-N-tert-Butyl-1-(2-chloro-6-(prop-2-yn-1-yloxy)quinolin-3-yl)methanimine oxide]
Neuroprotection at 1 µM [1]: 33.7 ± 0.73% | Neuroprotection at 10 µM [1]: 33.3 ± 0.93% | Neuroprotection at 100 µM [2]: 40 ± 0.77% | protective effect (cell viability compared with vehicle-treated group R24h), in words: no remarkable overall protective effect

COc1ccc2nc(-c3ccc([N+](=O)[O-])cc3)c(/C=[N+](\[O-])C(C)(C)C)cc2c1 [QN15, (Z)-N-tert-Butyl-1-(6-methoxy-2-(4-nitrophenyl)quinolin-3-yl)methanimine oxide]
neuroprotection effect / potency compared with references, in words: highest neuroprotection effect | Neuroprotection at 1 µM [1]: 48.1 ± 1.21% | toxicity / safety, in words: safe

COc1ccc2nc(-c3ccc(C(F)(F)F)cc3)c(/C=[N+](\[O-])C(C)(C)C)cc2c1 [QN13, (Z)-N-tert-Butyl-1-(6-methoxy-2-(4-(trifluoromethyl)phenyl)quinolin-3-yl)methanimine oxide]
Neuroprotection at 1 µM [1]: 39.3 ± 1.16%

COc1ccc2nc(O)c(/C=[N+](\[O-])C(C)(C)C)cc2c1 [QN5, (Z)-N-tert-Butyl-1-(2-hydroxy-6-methoxyquinolin-3-yl)methanimine oxide]
Neuroprotection at 1 µM [1]: 24.5 ± 0.54% | protective effect (cell viability compared with vehicle-treated group R24h), in words: did not give a remarkable protective effect
